Columns and labels:
[1] = target: T1, GST-Met 248 PDE IVa (GST fusion protein of the human recombinant phosphodiesterase IVa (met-248)) (Homo sapiens, UniProt P27815); assay: SPA based PDE activity assay: inhibition of human recombinant PDE IVa (GST-Met 248); assay type: biochemical; settings: 100 nM cAMP; purified GST fusion protein, baculovirus/Sf-9 expression system
T1 construct: phosphodiesterase IVa (met-248); made in house; host or cells: Sf-9 insect cells (baculovirus)
Method: SPA Based PDE Activity Assay Protocol
Compounds which inhibit the hydrolysis of cAMP to AMP by the type-IV cAMP-specific phosphodiesterases were screened in 96-well plate format as follows:
In a 96 well-plate at 30° C. was added the test compound (dissolved in 2 ul DMSO), 188 ml of substrate buffer containing [2,8-^3 H] adenosine 3',5'-cyclic phosphate (cAMP, 100 nM to 50 μM), 10 mM MgCl2, 1 mM EDTA, 50 mM Tris, pH 7.5. The reaction was initiated by the addition of […] of human recombinant PDE-IV (the amount was controlled so that ~10% product was formed in 10 min. at 30° C.). The reaction was stopped after 10 min. by the addition of 1 mg of PDE-SPA beads (Amersham). The product AMP generated was quantified on a Microbeta 96-well plate counter. The signal in the absence of enzyme was defined as the background. 100% activity was defined as the signal detected in the presence of enzyme and DMSO with the background subtracted. Percentage of inhibition was calculated accordingly. IC50 value was approximated with a non-linear regression fit of the standard 4-parameter/multiple binding sites equation from a ten point titration.
IC50 values shown in Table 4 were determined with 100 nM cAMP using the purified GST fusion protein of the human recombinant phosphodiesterase IVa (met-248) produced from a baculovims/Sf-9 expression system.

papillary muscle = settings: general statement; cited from earlier work
right atrial muscle = settings: right atria; general statement; cited from earlier work
[2] = used in asthma as a bronchodilator; cited from earlier work

T1 sequence (P27815 248-886 limits assumed): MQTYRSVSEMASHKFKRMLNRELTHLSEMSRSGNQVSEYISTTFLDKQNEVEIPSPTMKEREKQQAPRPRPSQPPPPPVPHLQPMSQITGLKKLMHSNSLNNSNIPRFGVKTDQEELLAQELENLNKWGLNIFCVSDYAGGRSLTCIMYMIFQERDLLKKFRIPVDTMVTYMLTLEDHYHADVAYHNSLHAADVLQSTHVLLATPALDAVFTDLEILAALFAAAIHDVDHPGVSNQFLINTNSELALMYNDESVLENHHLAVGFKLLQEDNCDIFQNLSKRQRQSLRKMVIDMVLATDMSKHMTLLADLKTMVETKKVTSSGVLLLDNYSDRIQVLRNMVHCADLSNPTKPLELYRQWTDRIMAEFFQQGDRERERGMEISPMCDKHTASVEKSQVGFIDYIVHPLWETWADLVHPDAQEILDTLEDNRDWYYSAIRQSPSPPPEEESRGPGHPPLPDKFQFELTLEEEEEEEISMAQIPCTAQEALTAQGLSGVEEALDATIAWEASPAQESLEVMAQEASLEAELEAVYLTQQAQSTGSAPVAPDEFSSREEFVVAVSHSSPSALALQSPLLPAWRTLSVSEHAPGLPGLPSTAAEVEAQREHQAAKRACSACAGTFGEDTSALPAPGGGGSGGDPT

Row | Structure (SMILES) | IC50 [1] [nM] | other results
1 | COc1ccc([C@H](Cc2ccncc2)c2ccc(C(=O)NS(=O)(=O)C(F)(F)F)cc2)cc1OC1CCCC1 [Example 3, N-{(R)-4-[1-(3-Cyclopentyloxy-4-methoxyphenyl)-2-(4-pyridyl)ethyl]benzoyl}trifluoromethanesulfonamide] | 1 | –
2 | COc1ccc(C(Cc2ccncc2)c2ccc(S(=O)(=O)NC(=O)c3ccccc3C)cc2)cc1OC1CCCC1 (stereo not shown) [Example 8, N-(o-Toluoyl)-4-[1-(3-Cyclopentyloxy-4-methoxyphenyl)-2-(4-pyridyl)ethyl]benzenenesulfonamide] | 0.7 | –
3 | COc1ccc(C2CNC(=O)C2)cc1OC1CCCC1 (stereo not shown) [rolipram] | – | direct inotropic effects of known PDE inhibitors (papillary muscle): do not have any direct effects; direct chronotropic effects of known PDE inhibitors (right atrial muscle): do not have any direct effects
4 | COc1ccc([C@H](Cc2ccncc2)c2ccc(C(=O)NS(=O)(=O)c3ccccc3)cc2)cc1OC1CCCC1 [Example 2, N-{(R)-4-[1-(3-Cyclopentyloxy-4-methoxyphenyl)-2-(4-pyridyl)ethyl]benzoyl}benzenesulfonamide] | 0.5 | –
5 | Cc1[nH]c(=O)c(C#N)cc1-c1ccncc1 [milrinone] | – | direct inotropic effects of known PDE inhibitors (papillary muscle): positive chronotropic and inotropic effects; direct chronotropic effects of known PDE inhibitors (right atrial muscle): positive chronotropic and inotropic effects
6 | Cn1c(=O)c2[nH]cnc2n(C)c1=O [theophylline] | – | cardiovascular changes [2]: significant cardiovascular changes such as tachycardia
7 | COc1ccc([C@H](Cc2ccncc2)c2ccc(C(=O)NS(=O)(=O)c3ccccc3C)cc2)cc1OC1CCCC1 [Example 4, N-{(R)-4-[1-(3-Cyclopentyloxy-4-methoxyphenyl)-2-(4-pyridyl)ethyl]benzoyl}o-toluenesulfonamide] | 0.4 | –
8 | COc1ccc([C@H](Cc2ccncc2)c2ccc(CC(=O)NS(=O)(=O)C(F)(F)F)cc2)cc1OC1CCCC1 [Example 6, N-{(R)-4-[1-(3-Cyclopentyloxy-4-methoxyphenyl)-2-(4-pyridyl)ethyl]phenylacetyl}trifluoromethanesulfonamide] | 0.8 | –
9 | COc1ccc([C@H](Cc2ccncc2)c2ccc(CC(=O)NS(=O)(=O)c3ccccc3)cc2)cc1OC1CCCC1 [Example 5, N-{(R)-4-[1-(3-Cyclopentyloxy-4-methoxyphenyl)-2-(4-pyridyl)ethyl]phenylacetyl}benzenesulfonamide] | 1.5 | –
10 | COc1ccc([C@H](Cc2ccncc2)c2ccc(C(=O)NS(C)(=O)=O)cc2)cc1OC1CCCC1 [Example 1, N-{(R)-4-[1-(3-Cyclopentyloxy-4-methoxyphenyl)-2-(4-pyridyl)ethyl]benzoyl}methanesulfonamide] | 4 | –
11 | COc1ccc([C@H](Cc2ccncc2)c2ccc(C(O)(C(F)(F)F)C(F)(F)F)cc2)cc1OC1CCCC1 [Example 7, (R)-4-{2-(3-Cyclopentyloxy-4-methoxyphenyl)-2-[4-(1,1,1,3,3,3-hexafluoro-2-hydroxypropan-2-yl)phenyl]ethyl}pyridine] | 0.2 | –
